# Molecular target: NSP9 (Severe acute respiratory syndrome coronavirus 2, UniProt P0DTC1)
# Assay: biochemical
# Assay type: binding, SARS‐CoV‐2
# Details: not given
Substance,Kd,IC50
Ac-QGAWLPAPEPWEPLLD-NH2 [NOTCH4 G1611P],410 µM,
Ac-QGAWLDAPEPWEPLLD-NH2 [NOTCH4 G1611D],160 µM,
Ac-QGAWLGAPEYWEPLLD-NH2 [NOTCH4 P1615Y],51 µM,152 µM
Ac-QGAWLGAVEPWEPLLD-NH2 [NOTCH4 P1613V],33 µM,105 µM
Ac-QGAWLGIPEPWEPLLD-NH2 [NOTCH4 A1612I],50 µM,149 µM
Ac-QGAWLGAPEPYEPLLD-NH2 [NOTCH4 W1616Y],57 µM,167 µM
Ac-QGVWLGAPEPWEPLLD-NH2 [NOTCH4 A1608V],16 µM,59 µM
Ac-QGSWLGAPEPWEPLLD-NH2 [NOTCH4 A1608S],216 µM,583 µM
Ac-QGAWLGAPEPWEPLLD-NH2 [NOTCH4 wt],72 µM,205 µM
Ac-QGAWLGAPVPWEPLLD-NH2 [NOTCH4 E1614V],,178 µM
Ac-QGAWLGAPEPWFPLLD-NH2 [NOTCH4 E1617F],35 µM,109 µM
Ac-QGVWLGAVEPWEPLLD-NH2 [NOTCH4 A1608V P1613V],5.9 µM,33.4 µM

# Molecular target: NSP3 SUD-M (Severe acute respiratory syndrome coronavirus 2, UniProt P0DTC1)
# Assay: biochemical
# Assay type: binding, SARS‐CoV‐2
# Details: not given
Substance,IC50,Kd
Ac-QFTEEDLMFVLYGVTPY-NH2 [PRDM14 H203M],124 µM,13 µM
Ac-QFTEEDLHFVLEGVTPY-NH2 [PRDM14 Y207E],243 µM,40 µM

# Test system: G3BP1 NFT2
# Assay: not given
# Assay type: binding, human
# Details: library DMS-BM; bait G3BP1 NFT2; prey CAPRIN1; AQMQGPYNFIQDSM(averaged): mean of the two overlapping peptides over the shared positions
row,Substance,"DMS position-specific score (PSSM value) per amino-acid substitution, averaged"
1,AQMQGPYNFIQDSM(averaged) S13I (AQMQGPYNFIQDIM),0.01393
2,AQMQGPYNFIQDSM(averaged) F9P (AQMQGPYNPIQDSM),0
3,AQMQGPYNFIQDSM(averaged) P6F (AQMQGFYNFIQDSM),0.002152
4,AQMQGPYNFIQDSM(averaged) N8I (AQMQGPYIFIQDSM),0.06952
5,AQMQGPYNFIQDSM(averaged) F9M (AQMQGPYNMIQDSM),0
6,AQMQGPYNFIQDSM(averaged) A1Q (QQMQGPYNFIQDSM),0.1157
7,AQMQGPYNFIQDSM(averaged) M3V (AQVQGPYNFIQDSM),0.3519
8,AQMQGPYNFIQDSM(averaged) A1A,0.1937
9,AQMQGPYNFIQDSM(averaged) Q2T (ATMQGPYNFIQDSM),0.03322
10,AQMQGPYNFIQDSM(averaged) G5Y (AQMQYPYNFIQDSM),0.006993
11,AQMQGPYNFIQDSM(averaged) Y7I (AQMQGPINFIQDSM),0.113
12,AQMQGPYNFIQDSM(averaged) Q2H (AHMQGPYNFIQDSM),0.02779
13,AQMQGPYNFIQDSM(averaged) M3S (AQSQGPYNFIQDSM),0.002665
14,AQMQGPYNFIQDSM(averaged) P6L (AQMQGLYNFIQDSM),0.02822
15,AQMQGPYNFIQDSM(averaged) I10M (AQMQGPYNFMQDSM),0.03721
16,AQMQGPYNFIQDSM(averaged) M14K (AQMQGPYNFIQDSK),0.0006833
17,AQMQGPYNFIQDSM(averaged) P6I (AQMQGIYNFIQDSM),0.007006
18,AQMQGPYNFIQDSM(averaged) Q4W (AQMWGPYNFIQDSM),0.01813
19,AQMQGPYNFIQDSM(averaged) Q2A (AAMQGPYNFIQDSM),0.04422

row,Substance,"DMS position-specific score (PSSM value) per amino-acid substitution, averaged"
1,AQMQGPYNFIQDSM(averaged) A1S (SQMQGPYNFIQDSM),0.001176
2,AQMQGPYNFIQDSM(averaged) G5P (AQMQPPYNFIQDSM),0.02397
3,AQMQGPYNFIQDSM(averaged) N8H (AQMQGPYHFIQDSM),0.02395
4,AQMQGPYNFIQDSM(averaged) A1V (VQMQGPYNFIQDSM),0.05956
5,AQMQGPYNFIQDSM(averaged) Q11N (AQMQGPYNFINDSM),0.05691
6,AQMQGPYNFIQDSM(averaged) Y7P (AQMQGPPNFIQDSM),0.002813
7,AQMQGPYNFIQDSM(averaged) F9V (AQMQGPYNVIQDSM),0.0005113
8,AQMQGPYNFIQDSM(averaged) A1K (KQMQGPYNFIQDSM),0.0005059
9,AQMQGPYNFIQDSM(averaged) Q11D (AQMQGPYNFIDDSM),0
10,AQMQGPYNFIQDSM(averaged) S13W (AQMQGPYNFIQDWM),0.01323
11,AQMQGPYNFIQDSM(averaged) S13P (AQMQGPYNFIQDPM),0
12,AQMQGPYNFIQDSM(averaged) S13E (AQMQGPYNFIQDEM),0.01271
13,AQMQGPYNFIQDSM(averaged) G5T (AQMQTPYNFIQDSM),0.007904
14,AQMQGPYNFIQDSM(averaged) A1P (PQMQGPYNFIQDSM),0.07411
15,AQMQGPYNFIQDSM(averaged) Q4P (AQMPGPYNFIQDSM),0.003604
16,AQMQGPYNFIQDSM(averaged) N8L (AQMQGPYLFIQDSM),0.06185
17,AQMQGPYNFIQDSM(averaged) P6S (AQMQGSYNFIQDSM),0.00881
18,AQMQGPYNFIQDSM(averaged) N8F (AQMQGPYFFIQDSM),0.00737
19,AQMQGPYNFIQDSM(averaged) N8D (AQMQGPYDFIQDSM),0.05276

# Test system: USP7 MATH
# Assay: not given
# Assay type: binding, human
# Details: DMS-CoV library, bait USP7 MATH, prey N, parental peptide SKQLQQSMSSADSTQA, label suffix = wt residue, displayed residue (same letter = wild type), x = no value
row,Substance,DMS PSSM value (matrix of displayed amino acid x peptide position)
1,SKQLQQSMSSADSTQA T14V (SKQLQQSMSSADSVQA),1
2,SKQLQQSMSSADSTQA S7S,1
3,SKQLQQSMSSADSTQA S9S,1
4,SKQLQQSMSSADSTQA S10S,1
5,SKQLQQSMSSADSTQA Q3Q,1
6,SKQLQQSMSSADSTQA Q5Q,1
7,SKQLQQSMSSADSTQA Q15Q,1
8,SKQLQQSMSSADSTQA A11A,1
9,SKQLQQSMSSADSTQA S13S,1
10,SKQLQQSMSSADSTQA K2V (SVQLQQSMSSADSTQA),1
11,SKQLQQSMSSADSTQA D12D,1
12,SKQLQQSMSSADSTQA Q6Q,1
13,SKQLQQSMSSADSTQA S1S,1
14,SKQLQQSMSSADSTQA M8M,1

# Molecular target: G3BP1 NTF2 (Homo sapiens, UniProt Q13283)
# Sequence (Q13283 1-139): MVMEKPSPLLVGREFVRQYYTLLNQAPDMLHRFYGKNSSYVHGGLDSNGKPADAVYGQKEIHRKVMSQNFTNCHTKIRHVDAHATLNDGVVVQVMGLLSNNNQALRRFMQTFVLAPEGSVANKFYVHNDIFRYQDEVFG
# Assay: biochemical
# Assay type: binding
# Details: not given
Substance,"effect of mutation on affinity, in words",IC50
Ac-APRIEFGGPSDSTGSY-NH2 [N12–26 T16E],sevenfold loss of affinity,
Ac-APRITFGAPSDSTGSY-NH2 [N G19A],,5.2 µM
Ac-APRITFGGFSDSTGSY-NH2 [N P20F],,44 µM
Ac-AERITFGGPSDSTGSY-NH2 [N P13E],,22 µM
Ac-APRIEFGGPSDSTGSY-NH2 [N T15E],,49 µM
Ac-APRITFGGPYDSTGSY-NH2 [N S21Y],,16 µM
Ac-APLITFGGPSDSTGSY-NH2 [N R14L],,11 µM
Ac-DPRITFGGPSDSTGSY-NH2 [N A12D],,9.9 µM

# Same assay, conditions: KD
row,Substance,Kd
1,Ac-APRITFGGPSDSTGSY-NH2 [N wt],2.3 µM
2,Ac-APRIEFGGPSDSTGSY-NH2 [N12–26 T16E],16 µM
3,Ac-APRITFGAPSDSTGSY-NH2 [N G19A],1.1 µM
4,Ac-APRITFGGFSDSTGSY-NH2 [N P20F],14 µM
5,Ac-AERITFGGPSDSTGSY-NH2 [N P13E],6.8 µM
6,Ac-APRITFGGPYDSTGSY-NH2 [N S21Y],4.7 µM
7,Ac-APLITFGGPSDSTGSY-NH2 [N R14L],3 µM
8,Ac-DPRITFGGPSDSTGSY-NH2 [N A12D],2.7 µM
9,Ac-APRITFGGPSDSTGSY-NH2 [N12–26],2 µM
